Results reported in patent US20230087342A1, “AZEPANE DERIVATIVE” (Nippon Chemiphar Co., Ltd., priority 2019, published 2023).

Biological target: T1, human κ opioid receptors (Homo sapiens, UniProt P41145)
T1 construct: host or cells: CHO cells
Assay: Opioid receptor function test (Lance Ultra cAMP kit, agonist activity)
Format: cell-based
Details: CHO cells expressing human κ opioid receptors, 10 μM forskolin, 30 minutes
Summary of the method: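 CHO cells expressing human κ opioid receptor incubated 30 min with test compound (10^−14 to 10^−7 M) and 10 μM forskolin in HSS/5 mM HEPES pH 7.4 with 0.5 mM IBMX and 0.1% SA. cAMP measured by TR-FRET (Lance Ultra) 1 h after detection reagent addition.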

T1 sequence (P41145 whole entry): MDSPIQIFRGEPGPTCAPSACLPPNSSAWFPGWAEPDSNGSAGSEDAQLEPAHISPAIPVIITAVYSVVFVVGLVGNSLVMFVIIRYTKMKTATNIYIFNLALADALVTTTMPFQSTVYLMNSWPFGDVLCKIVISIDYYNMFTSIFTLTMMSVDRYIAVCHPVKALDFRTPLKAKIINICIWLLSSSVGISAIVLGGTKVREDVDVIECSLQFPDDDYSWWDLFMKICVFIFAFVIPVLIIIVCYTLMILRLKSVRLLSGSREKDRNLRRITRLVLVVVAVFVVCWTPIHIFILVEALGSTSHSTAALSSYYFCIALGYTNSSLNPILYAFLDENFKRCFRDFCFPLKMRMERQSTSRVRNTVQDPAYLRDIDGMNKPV

How did the EC50 turn out when `O=C(Cn1nccc1O)N1CC[C@]23CCN(CC4CC4)[C@H](Cc4ccc(O)cc42)[C@]3(O)CC1` [Example 214, 1-((5aS,6R,11bR)-14-(cyclopropylmethyl)-5a,10-dihydroxy-1,2,5,5a,6,7-hexahydro-6,11b-(epiminoethano)naphtho[1,2-d]azepin-3(4H)-yl)-2-(5-hydroxy-1H-pyrazol-1-yl)ethan-1-one] was run?
Its EC50 is 0.13 nM.

How did the EC50 turn out when `Cc1cc(CCC(=O)N2CC[C@]34CCN(CC5CC5)[C@H](Cc5ccc(O)cc53)[C@]4(O)CC2)ns1` [Example 217, 1-((5aS,6R,11bR)-14-(cyclopropylmethyl)-5a,10-dihydroxy-1,2,5,5a,6,7-hexahydro-6,11b-(epiminoethano)naphtho[1,2-d]azepin-3(4H)-yl)-3-(5-methylisothiazol-3-yl)propan-1-one] was run?
Its EC50 is 0.18 nM.

Which EC50 does the source give for `Cc1cnn(CCN2CC[C@]34CCN(CC5CC5(F)F)[C@H](Cc5ccc(O)cc53)[C@]4(O)CC2)c1` (stereo partly drawn) [Example 218, (5aS,6R,11bS)-14-((2,2-difluorocyclopropyl)methyl)-3-(2-(4-methyl-1H-pyrazol-1-yl)ethyl)-2,3,4,5,6,7-hexahydro-6,11b-(epiminoethano)naphtho[1,2-d]azepine-5a,10(1H)-diol] here?
The EC50 was 0.16 nM.

How did the EC50 turn out when `Cc1cnn(CCN2CC[C@]34CCN(C[C@@H]5C[C@@H]5F)[C@H](Cc5ccc(O)cc53)[C@]4(O)CC2)c1` [Example 219, (5aS,6R,11bS)-14-(((1S,2S)-2-fluorocyclopropyl)methyl)-3-(2-(4-methyl-1H-pyrazol-1-yl)ethyl)-2,3,4,5,6,7-hexahydro-6,11b-(epiminoethano)naphtho[1,2-d]azepine-5a,10(1H)-diol] was run?
Its EC50 is 0.23 nM.

How did the EC50 turn out when `Cc1cnn(CCC(=O)N2CC[C@]34CCN(CC5CC5)[C@H](Cc5ccc(O)cc53)[C@]4(O)CC2)c1` [Example 220, 1-((5aS,6R,11bR)-14-(cyclopropylmethyl)-5a,10-dihydroxy-1,2,5,5a,6,7-hexahydro-6,11b-(epiminoethano)naphtho[1,2-d]azepin-3(4H)-yl)-3-(4-methyl-1H-pyrazol-1-yl)propan-1-one] was run?
The EC50 was 0.26 nM.

`Cc1cnn(CCN2CC[C@]34CCN(CC5(C)CC5)[C@H](Cc5ccc(O)cc53)[C@]4(O)CC2)c1` [Example 221, (5aS,6R,11bS)-3-(2-(4-methyl-1H-pyrazol-1-yl)ethyl)-14-((1-methylcyclopropyl)methyl)-2,3,4,5,6,7-hexahydro-6,11b-(epiminoethano)naphtho[1,2-d]azepine-5a,10(1H)-diol] was tested. Which EC50 did it give?
The EC50 was 0.034 nM.

With `Cc1cnn(CCN2CC[C@]34CCN(CC5(O)CC5)[C@H](Cc5ccc(O)cc53)[C@]4(O)CC2)c1` [Example 225, (5aS,6R,11bS)-14-((1-hydroxycyclopropyl)methyl)-3-(2-(4-methyl-1H-pyrazol-1-yl)ethyl)-2,3,4,5,6,7-hexahydro-6,11b-(epiminoethano)naphtho[1,2-d]azepine-5a,10(1H)-diol] as the compound, how does the EC50 read?
Its EC50 is 0.11 nM.

`Cc1cnn(CCN2CC[C@]34CCN(CC5(F)CC5)[C@H](Cc5ccc(O)cc53)[C@]4(O)CC2)c1` [Example 226, (5aS,6R,11bS)-14-((1-fluorocyclopropyl)methyl)-3-(2-(4-methyl-1H-pyrazol-1-yl)ethyl)-2,3,4,5,6,7-hexahydro-6,11b-(epiminoethano)naphtho[1,2-d]azepine-5a,10(1H)-diol] was tested. Which EC50 did it give?
Its EC50 is 0.017 nM.

Which EC50 does the source give for `Cc1cnn(CCCN2CC[C@]34CCN(CC5CC5)[C@H](Cc5ccc(O)cc53)[C@]4(O)CC2)c1` [Example 230, (5aS,6R,11bS)-14-(cyclopropylmethyl)-3-(3-(4-methyl-1H-pyrazol-1-yl)propyl)-2,3,4,5,6,7-hexahydro-6,11b-(epiminoethano)naphtho[1,2-d]azepine-5a,10(1H)-diol] here?
The EC50 was 0.066 nM.

For `Cc1cnn(C[C@H](CO)N2CC[C@]34CCN(CC5CC5)[C@H](Cc5ccc(O)cc53)[C@]4(O)CC2)c1` [Example 232, (5aS,6R,11bS)-14-(cyclopropylmethyl)-3-((R)-1-hydroxy-3-(4-methyl-1H-pyrazol-1-yl)propan-2-yl)-2,3,4,5,6,7-hexahydro-6,11b-(epiminoethano)naphtho[1,2-d]azepine-5a,10(1H)-diol], which EC50 is on record?
The EC50 was 0.17 nM.
